Holding throughout (assay type): physicochemical
The nature of one data set: pH of peptide solutions. Here is the method:
(§1) In a representative procedure, peptides were weighed and corrected for % peptide content, and then dissolved in DMSO to a concentration of 50 mg/mL. The DMSO/Peptide solution was then diluted with 5 mM sodium succinate in D5W to a 2 mg/mL peptide concentration.

Data set [1] can be described thus: Freeze/thaw and frozen storage stability (RP-HPLC, pH, visual inspection). The conditions noted are these: −20° C. stability study. The protocol:
Two individual peptides were dissolved in DMSO/D5W and placed on stability at two temperatures (−20° C. and −80° C.). These peptides were evaluated (RP-HPLC and pH and visual inspection) for up to 24 weeks. […] Any small changes appear to be due to assay variability as no trends were noted to be evaluated.
A peptide pool (Pool 4) consisting of five peptides was prepared by dissolution in DMSO, dilution with D5W/Succinate (5 mM) to 2 mg/ml and pooling to a final peptide concentration of 400 μg per ml and a final DMSO concentration of 4%. After preparation, peptides were filtered with a 25 mm Pall PES filter (Cat #4612) and dispensed into Nunc Cryo vials (#375418) in one ml aliquots. Samples were analyzed at time zero and at 2 and 4 weeks to date. Additional samples are analyzed at 8 and 24 weeks.

Data set [2] can be described thus: Peptide solubility evaluation: dissolution in DMSO, dilution in D5W with or without succinate. The conditions noted are these: DMSO/D5W; Table 4; Y/N; diluted to 2 mg/ml; read-out: Solubility In DMSO/D5W. Here is the method:
as §1
Additional peptide solubility conditions were tested. Peptides CS6709, CS6712, CS6720, CS6726, and CS6783 were weighed at approximately 10 mg each. The peptides were then dissolved in approximately 200 μL USP grade DMSO to obtain a 50 mg/mL concentration for each peptide. […] Additional 50 μL increments of DMSO were added to Peptide CS6709 up to 400 μL; for a total of 600 μL of DMSO.
Based on gross weight and peptide content, 15 mg (net weight) or slightly more of each individual peptide are weighed and 100% USP Grade DMSO […] is added to achieve a final peptide concentration of 50 mg/ml.

Data set [3] is described as follows: Peptide diluent matrix (precipitation on dilution of DMSO dissolved peptides). The conditions noted are these: 5 peptides in one vial diluted to 400 μg/mL. Here is the method: Additional peptide solubility conditions were tested. Peptides CS6709, CS6712, CS6720, CS6726, and CS6783 were weighed at approximately 10 mg each. The peptides were then dissolved in approximately 200 μL USP grade DMSO to obtain a 50 mg/mL concentration for each peptide. […] The sample appeared to be cloudy. […] The volume of CS6709 added to the single vial was 120 μL. […] Upon addition of the PBS pH 7.4, it was observed that one or more of the peptides had precipitated out. To determine which of the peptides precipitated, Applicants followed the matrix in Table 5 below using very small amounts (10-20 μL) of the DMSO dissolved peptides and adding these peptides to the various liquids.

This is an account of results in US20160310584A1, “FORMULATIONS FOR NEOPLASIA VACCINES” (THE BROAD INSTITUTE INC., priority 2013, published 2016).

As to “H-KLAWRGRISSSGCPSMTSPPSPMFGMTLHT-OH [CS6919]”, in “pH of peptide solutions”, the “pH of peptides in DMSO/D5W/5 mM S. Succinate spike” value is given as 6.74; the “pH of peptides in DMSO/D5W/5 mM Succinate and Hiltonol” value was 6.99. Besides, the “Heterodimer formation (mass spectrometry)” value in data set [1] was “can form a heterodimer”.

As for “H-LLTDRNTSGTTFTLLGVSDYPELQVPLFLVFLA-OH [CS6783]”, the solubility in data set [2] is less than 2000 µg/mL. In addition, the “Precipitation when PBS pH 7.4 was added as diluent to the peptide mixture” value in data set [3] is listed as “precipitate”.

As for “H-SKRGVGAKTLLLPDPFLFWPCLEGTRRSL-OH [CS6934]”, in “pH of peptide solutions”, the “pH of peptides in DMSO/D5W/5 mM S. Succinate spike” value is 6.57; the “pH of peptides in DMSO/D5W/5 mM Succinate and Hiltonol” value was found to be 6.79. In addition, the “Heterodimer formation (mass spectrometry)” value in data set [1] is “can form a heterodimer”.
